Reference: patent US7326703B2, “(1,10B-Dihydro-2-(aminocarbonyl-phenyl)-5H-pyrazolo[1,5-c][1,3]benzoxazin-5-yl)phenyl methanone derivatives as HIV viral replication inhibitors” (priority 2004, dated 2008)
Read-outs that look alike come from different tables or passages of the source.

Legend:
[1] = system: HIV-1-MDR; assay: Cellular anti-viral assay in MT4-LTR-EGFP cells, multi-drug resistant HIV-1 virus; format: cell-based; conditions: Human immunodeficiency virus 1, 72 h, read-out: Activity class for HIV-1-MDR test
Protocol: (§1) The compounds were tested in a cellular assay using the MT4-LTR-EGFP cells for anti-viral activity. […] The cellular assay was performed according to the following procedure.
(§2) HIV- or mock-infected MT4-LTR-EGFP cells were incubated for three days in the presence of various concentrations of the inhibitor. Upon infection, the GFP reporter is activated by the viral tat protein. At the end of the incubation period, the GFP signal was measured. In the virus control samples (in the absence of any inhibitor) the maximal fluorescent signal was obtained. The inhibitory activity of the compound was monitored on the virus-infected cells and was expressed as EC50 and EC90. These values represent the amount of the compound required to protect 50% and 90%, respectively, of the cells from virus infection. The toxicity of the compound was measured on the mock-infected cells and was expressed as CC50, which represents the concentration of compound required to inhibit the growth of the cells by 50%. The selectivity index (SI) (ratio CC50/EC50) is an indication of the selectivity of the anti-HIV activity of the inhibitor.

[2] = system: HIV-1 strain LAI; assay: Cellular anti-viral assay in MT4-LTR-EGFP cells, wild type HIV-1 strain LAI; format: cell-based; conditions: Human immunodeficiency virus 1, 72 h, read-out: Activity class for HIV-1-LAI test
Protocol: as §1, §2

[3] = MT4-LTR-EGFP cells, three days incubation, GFP signal, average EC50 used where more than one run

SMILES	EC50 [1]	EC50 [2, 3]	EC50 [2]
COc1ccccc1CNC(=O)c1ccc(C2=NN3C(C(=O)c4ccc(F)cc4)Oc4ccccc4C3C2)cc1 (centres unmarked) [Compound 23]	> 10 µM	> 10 µM	–
COc1ccc(NC(=O)c2ccc(C3=NN4C(C(=O)c5ccc(F)cc5)Oc5ccccc5C4C3)cc2)cc1 (centres unmarked) [Compound 26]	1 to 10 µM	1 to 10 µM	–
O=C(NC1CCCC1)c1ccc(C2=NN3C(C(=O)c4ccc(N5CCCCC5)cc4)Oc4ccccc4C3C2)cc1 (centres unmarked) [Compound 49]	–	> 10 µM	–
CCc1ccc(C(=O)C2Oc3ccccc3C3CC(c4ccc(C(=O)NC5CCCC5)cc4)=NN23)cc1 (centres unmarked) [Compound 47]	< 1 µM	< 1 µM	–
CN1CCC(NC(=O)c2ccc(C3=NN4C(C(=O)c5ccc(F)cc5)Oc5ccccc5C4C3)cc2)CC1 (centres unmarked) [Compound 34]	> 10 µM	1 to 10 µM	–
CS(=O)(=O)c1ccc(C(=O)C2Oc3ccccc3C3CC(c4ccc(C(=O)NC5CCCC5)cc4)=NN23)cc1 (centres unmarked) [Compound 53]	< 1 µM	< 1 µM	–
O=C(NCCc1ccccn1)c1ccc(C2=NN3C(C(=O)c4ccc(F)cc4)Oc4ccccc4C3C2)cc1 (centres unmarked) [Compound 19]	> 10 µM	1 to 10 µM	–
CCN(CC)CCNC(=O)c1ccc(C2=NN3C(C(=O)c4ccc(F)cc4)Oc4ccccc4C3C2)cc1 (centres unmarked) [Compound 42]	> 10 µM	1 to 10 µM	–
O=C(NCc1cccc(F)c1)c1ccc(C2=NN3C(C(=O)c4ccc(F)cc4)Oc4ccccc4C3C2)cc1 (centres unmarked) [Compound 10]	> 10 µM	> 10 µM	–
O=C(NCCN1CCCC1)c1ccc(C2=NN3C(C(=O)c4ccc(F)cc4)Oc4ccccc4C3C2)cc1 (centres unmarked) [Compound 40]	> 10 µM	1 to 10 µM	–
CN(C)CCNC(=O)c1ccc(C2=NN3C(C(=O)c4ccc(F)cc4)Oc4ccccc4C3C2)cc1 (centres unmarked) [Compound 13]	> 10 µM	1 to 10 µM	–
CC(C)(C)NCCNC(=O)c1ccc(C2=NN3C(C(=O)c4ccc(F)cc4)Oc4ccccc4C3C2)cc1 (centres unmarked) [Compound 41]	> 10 µM	1 to 10 µM	–
O=C(c1ccc(F)cc1)C1Oc2ccccc2C2CC(c3ccc(C(=O)N4CCN(Cc5ccccc5)CC4)cc3)=NN12 (centres unmarked) [Compound 15]	> 10 µM	> 10 µM	–
CN1CCN(C(=O)c2ccc(C3=NN4C(C(=O)c5ccc(F)cc5)Oc5ccccc5C4C3)cc2)CC1 (centres unmarked) [Compound 35]	> 10 µM	< 1 µM	–
CN(C)c1ccc(NC(=O)c2ccc(C3=NN4C(C(=O)c5ccc(F)cc5)Oc5ccccc5C4C3)cc2)cc1 (centres unmarked) [Compound 27]	< 1 µM	< 1 µM	–
O=C(NCC1CCCCC1)c1ccc(C2=NN3C(C(=O)c4ccc(F)cc4)Oc4ccccc4C3C2)cc1 (centres unmarked) [Compound 2]	> 10 µM	> 10 µM	–
CCCc1ccc(C(=O)C2Oc3ccccc3C3CC(c4ccc(C(=O)NC5CCCC5)cc4)=NN23)cc1 (centres unmarked) [Compound 45]	< 1 µM	< 1 µM	–
O=C(c1ccc(F)cc1)C1Oc2ccccc2C2CC(c3ccc(C(=O)N4CCc5ccccc5C4)cc3)=NN12 (centres unmarked) [Compound 11]	> 10 µM	> 10 µM	–
O=C(NC1CCC1)c1ccc(C2=NN3C(C(=O)c4ccc(F)cc4)Oc4ccccc4C3C2)cc1 (centres unmarked) [Compound 38]	1 to 10 µM	< 1 µM	–
C=CCN(C(=O)c1ccc(C2=NN3C(C(=O)c4ccc(F)cc4)Oc4ccccc4C3C2)cc1)C1CCCCC1 (centres unmarked) [Compound 37]	> 10 µM	1 to 10 µM	–
CC(C)(C)c1ccc(C(=O)C2Oc3ccccc3C3CC(c4ccc(C(=O)NC5CCCC5)cc4)=NN23)cc1 (centres unmarked) [Compound 50]	< 1 µM	< 1 µM	–
CN(C)CCN(Cc1ccccc1)C(=O)c1ccc(C2=NN3C(C(=O)c4ccc(F)cc4)Oc4ccccc4C3C2)cc1 (centres unmarked) [Compound 43]	> 10 µM	1 to 10 µM	–
O=C(NCc1cccs1)c1ccc(C2=NN3C(C(=O)c4ccc(F)cc4)Oc4ccccc4C3C2)cc1 (centres unmarked) [Compound 30]	> 10 µM	> 10 µM	–
O=C(c1ccc(F)cc1)C1Oc2ccccc2C2CC(c3ccc(C(=O)N4CCCCCC4)cc3)=NN12 (centres unmarked) [Compound 17]	> 10 µM	< 1 µM	–
CN(C)CCCNC(=O)c1ccc(C2=NN3C(C(=O)c4ccc(Br)cc4)Oc4ccccc4C3C2)cc1 (centres unmarked) [Compound 9]	> 10 µM	< 1 µM	–
CN(C)CCCNC(=O)c1ccc(C2=NN3C(C(=O)c4ccc(F)cc4)Oc4ccccc4C3C2)cc1 (centres unmarked) [Compound 3]	> 10 µM	> 10 µM	–
O=C(NC1CCCC1)c1ccc(C2=NN3C(C(=O)c4cccc(Br)c4)Oc4ccccc4C3C2)cc1 (centres unmarked) [Compound 58]	< 1 µM	< 1 µM	–
O=C(NC1CCCC1)c1ccc(C2=NN3C(C(=O)c4ccc([N+](=O)[O-])cc4)Oc4ccccc4C3C2)cc1 (centres unmarked) [Compound 52]	< 1 µM	< 1 µM	–

SMILES	EC50 [1]	EC50 [2, 3]	EC50 [2]
CCNC(=O)c1ccc(C2=NN3C(C(=O)c4ccc(F)cc4)Oc4ccccc4C3C2)cc1 (centres unmarked) [Compound 32]	1 to 10 µM	> 10 µM	–
O=C(NCC1CCCO1)c1ccc(C2=NN3C(C(=O)c4ccc(F)cc4)Oc4ccccc4C3C2)cc1 (centres unmarked) [Compound 12]	> 10 µM	1 to 10 µM	–
CC(C)(C)OC(=O)N1CCN(C(=O)c2ccc(C3=NN4C(C(=O)c5ccc(F)cc5)Oc5ccccc5C4C3)cc2)CC1 (centres unmarked) [Compound 14]	> 10 µM	> 10 µM	–
N#Cc1ccc(C(=O)C2Oc3ccccc3C3CC(c4ccc(C(=O)NC5CCCC5)cc4)=NN23)cc1 (centres unmarked) [Compound 44, 4-[5-(4-Cyano-Benzoyl)-1,10b-Dihydro-5H-Pyrazolo[1,5-c][1,3]Benzoxazin-2-yl]-N-Cyclopentyl-Benzamide]	< 1 µM	–	< 1 µM
O=C(NCCc1ccccn1)c1ccc(C2=NN3C(C(=O)c4ccc(Br)cc4)Oc4ccccc4C3C2)cc1 (centres unmarked) [Compound 7]	> 10 µM	1 to 10 µM	–
CN(C)CCN(C)C(=O)c1ccc(C2=NN3C(C(=O)c4ccc(F)cc4)Oc4ccccc4C3C2)cc1 (centres unmarked) [Compound 39]	1 to 10 µM	< 1 µM	–
O=C(NC1CCCC1)c1ccc(C2=NN3C(C(=O)c4ccc(N5CCOCC5)cc4)Oc4ccccc4C3C2)cc1 (centres unmarked) [Compound 48]	1 to 10 µM	1 to 10 µM	–
CN1CCN(C(=O)c2ccc(C3=NN4C(C(=O)c5ccc(Br)cc5)Oc5ccccc5C4C3)cc2)CC1 (centres unmarked) [Compound 8]	> 10 µM	–	–
O=C(NC1CCCC1)c1ccc(C2=NN3C(C(=O)c4ccc(Br)cc4)Oc4ccccc4C3C2)cc1 (centres unmarked) [Compound 6]	> 10 µM	< 1 µM	–
O=C(NC1CCCCC1)c1ccc(C2=NN3C(C(=O)c4ccc(F)cc4)Oc4ccccc4C3C2)cc1 (centres unmarked) [Compound 1]	> 10 µM	1 to 10 µM	–
COc1ccc(CNC(=O)c2ccc(C3=NN4C(C(=O)c5ccc(F)cc5)Oc5ccccc5C4C3)cc2)cc1 (centres unmarked) [Compound 21]	> 10 µM	> 10 µM	–
CN(C)CCCN(C)C(=O)c1ccc(C2=NN3C(C(=O)c4ccc(F)cc4)Oc4ccccc4C3C2)cc1 (centres unmarked) [Compound 20]	1 to 10 µM	1 to 10 µM	–
COc1ccc(CNC(=O)c2ccc(C3=NN4C(C(=O)c5ccc(Br)cc5)Oc5ccccc5C4C3)cc2)cc1 (centres unmarked) [Compound 5]	> 10 µM	< 1 µM	–
O=C(NCc1ccco1)c1ccc(C2=NN3C(C(=O)c4ccc(F)cc4)Oc4ccccc4C3C2)cc1 (centres unmarked) [Compound 31]	1 to 10 µM	1 to 10 µM	–
CSc1ccc(C(=O)C2Oc3ccccc3C3CC(c4ccc(C(=O)NC5CCCC5)cc4)=NN23)cc1 (centres unmarked) [Compound 46]	< 1 µM	< 1 µM	–
O=C(NCc1ccccn1)c1ccc(C2=NN3C(C(=O)c4ccc(Br)cc4)Oc4ccccc4C3C2)cc1 (centres unmarked) [Compound 4]	–	1 to 10 µM	–
COc1ccc(C(=O)C2Oc3ccccc3C3CC(c4ccc(C(=O)NC5CCCC5)cc4)=NN23)cc1 (centres unmarked) [Compound 51]	< 1 µM	–	–
CC(C)NC(=O)c1ccc(C2=NN3C(C(=O)c4ccc(F)cc4)Oc4ccccc4C3C2)cc1 (centres unmarked) [Compound 33]	< 1 µM	< 1 µM	–
O=C(Nc1cccnc1)c1ccc(C2=NN3C(C(=O)c4ccc(F)cc4)Oc4ccccc4C3C2)cc1 (centres unmarked) [Compound 29]	< 1 µM	1 to 10 µM	–
O=C(NC1CCCC1)c1ccc(C2=NN3C(C(=O)c4ccc(C(F)(F)F)cc4)Oc4ccccc4C3C2)cc1 (centres unmarked) [Compound 55]	< 1 µM	< 1 µM	–
O=C(NC1CCCC1)c1ccc(C2=NN3C(C(=O)c4ccc(F)cc4)Oc4ccccc4C3C2)cc1 (centres unmarked) [Compound 18]	–	< 1 µM	–
COc1ccc(OC)c(CNC(=O)c2ccc(C3=NN4C(C(=O)c5ccc(F)cc5)Oc5ccccc5C4C3)cc2)c1 (centres unmarked) [Compound 25]	1 to 10 µM	1 to 10 µM	–
O=C(NC1CCCC1)c1ccc(C2=NN3C(C(=O)c4ccc(C5CCCCC5)cc4)Oc4ccccc4C3C2)cc1 (centres unmarked) [Compound 54]	1 to 10 µM	1 to 10 µM	–
COc1ccc(N(C)C(=O)c2ccc(C3=NN4C(C(=O)c5ccc(F)cc5)Oc5ccccc5C4C3)cc2)cc1 (centres unmarked) [Compound 28]	< 1 µM	< 1 µM	–
CC(C)CC(C)NC(=O)c1ccc(C2=NN3C(C(=O)c4ccc(F)cc4)Oc4ccccc4C3C2)cc1 (centres unmarked) [Compound 22]	> 10 µM	< 1 µM	–
CN(C(=O)c1ccc(C2=NN3C(C(=O)c4ccc(F)cc4)Oc4ccccc4C3C2)cc1)C1CCCCC1 (centres unmarked) [Compound 36]	–	< 1 µM	–
O=C(NCc1ccccn1)c1ccc(C2=NN3C(C(=O)c4ccc(F)cc4)Oc4ccccc4C3C2)cc1 (centres unmarked) [Compound 16]	> 10 µM	> 10 µM	–
